{"source": "patent US20080085338A1", "about": "“Pet Food” (priority 2005, published 2008)", "key": {"[1]": {"system": "bacteria taken from the feline oral cavity", "experiment": "in vitro antibacterial activity", "assay_type": "cell-based", "experimental": "Periodontopathic conditions are the most common disease in dogs and cats. Especially in cats, prophylaxis is usually limited to professional dental cleaning under anaesthesia. Special diets which reduce plaque and calculus accumulation have been formulated to extend the period of time between professional dental cleanings. The study was conducted to determine the effect of EGCG in a regular dry diet on the oral health of cats. In addition, the in vitro antibacterial activity of the substance and its effect on the antioxidant status of cats were evaluated. […] With a view to achieving better in vivo results, a change in the dosage, and possibly also a change in the mode of administration, can be considered. Further, the active ingredient can be administered in higher concentration, or in such a way as to prolong the time of its contact with the oral cavity. […] This was investigated as a secondary target variable."}, "[2]": {"experiment": "28-day feeding study in cats, antioxidant status", "assay_type": "in vivo", "conditions": "dry cat food with 227 mg/kg of EGCG, 28 days, compared with control group", "experimental": "Periodontopathic conditions are the most common disease in dogs and cats. Especially in cats, prophylaxis is usually limited to professional dental cleaning under anaesthesia. Special diets which reduce plaque and calculus accumulation have been formulated to extend the period of time between professional dental cleanings. The study was conducted to determine the effect of EGCG in a regular dry diet on the oral health of cats. In addition, the in vitro antibacterial activity of the substance and its effect on the antioxidant status of cats were evaluated. The substance under investigation was sprayed on a standard dry cat food. The supplemented diet contained 227 mg/kg of EGCG. 18 cats were made available for the feeding study, being assigned either to a control group or a study group, each group containing 9 cats. At the beginning of the trial, which was conducted over a period of 28 days, the oral health status of the cats was examined using various indices and tests, and samples from the oral cavity were obtained for bacteriological analysis. In addition, blood samples were taken to determine the antioxidant status of the animal. The examinations were followed by a coronal cleaning (scaling and polishing) to ensure that the study period began with no plaque or calculus present on tooth surfaces (“clean tooth” model). […]"}}, "data": [{"molecule": "O=C(O[C@@H]1Cc2c(O)cc(O)cc2O[C@@H]1c1cc(O)c(O)c(O)c1)c1cc(O)c(O)c(O)c1", "note": "[Epigallocatechingallate]", "values": [{"measurement": "inhibition of growth of bacteria taken from the feline oral cavity", "setting": "[1]", "value": "able to inhibit the growth bacteria taken from the feline oral cavity in vitro"}, {"measurement": "effect on the antioxidant status of the cats", "setting": "[2]", "value": "positive effect on the antioxidant status of the cat"}]}]}
